The source made the active and inactive calls. How the calls were made is not given here.
Target: intestinal alkaline phosphatase Alpi (Mus musculus)
Assay: inhibition of murine Alpi phosphatase – biochemical, luminescence, SAR follow-up (AID 493135)
Settings: purified mouse IAP, luminescent substrate readout

Row | Structure (SMILES) | IC50
1 | S=C(NCCC(c1ccccc1)c1ccccc1)Nc1ccc(Nc2ccccc2)cc1 | > 100 µM (inactive)
2 | Cc1cc(NC(=O)CCNS(=O)(=O)c2ccc3[nH]c(=O)oc3c2)ccc1Br | 81.8 µM
3 | COC(=O)c1cc(NC(=S)NCCC(c2ccccc2)c2ccccc2)cc(C(=O)OC)c1 | > 100 µM (inactive)
4 | Oc1ccc(-c2csc(Nc3cccc4ccccc34)n2)cc1O | 1.11 µM
5 | CC1(c2ccccc2)CC(C)(C)N(C(=S)Nc2ccccc2)c2ccccc21 (stereo not drawn) | > 100 µM (inactive)
6 | FC(F)(F)c1cccc(NC(=S)NCCC(c2ccccc2)c2ccccc2)c1 | > 100 µM (inactive)
7 | CC(C)N1CCC(=NNC(=O)c2cc(O)c(O)c(O)c2)CC1 | 24.9 µM
8 | O=C(CN1C(=O)/C(=C\c2ccco2)SC1=S)Nc1ccccc1C(=O)O | 58.7 µM
9 | O=[N+]([O-])c1ccc(NC(=S)NCCC(c2ccccc2)c2ccccc2)cc1 | > 100 µM (inactive)
10 | S=C(NCCC(c1ccccc1)c1ccccc1)Nc1ccc(Cl)cc1 | > 100 µM (inactive)
11 | S=C(NCCC(c1ccccc1)c1ccccc1)Nc1ccc(Cl)cc1Cl | > 100 µM (inactive)
12 | Cc1cccc(NC(=S)NCCC(c2ccccc2)c2ccccc2)c1C | > 100 µM (inactive)
13 | COc1cc([N+](=O)[O-])ccc1NC(=S)NCCC(c1ccccc1)c1ccccc1 | > 100 µM (inactive)
14 | COc1ccc(NC(=S)NCCC(c2ccccc2)c2ccccc2)cc1 | > 100 µM (inactive)
15 | CCN1CCN(S(=O)(=O)c2ccc3[nH]c(=O)oc3c2)CC1 | > 100 µM (inactive)
16 | CN1CCC(=NNC(=O)c2cc(O)c(O)c(O)c2)CC1 | 38.7 µM
17 | CCOC(=O)c1ccc(NC(=S)NCCC(c2ccccc2)c2ccccc2)cc1 | > 100 µM (inactive)
18 | COc1ccc(Cl)cc1NC(=S)NCCC(c1ccccc1)c1ccccc1 | > 100 µM (inactive)
19 | Cc1ccc(NC(=S)NCCC(c2ccccc2)c2ccccc2)cc1 | > 100 µM (inactive)
20 | COc1cc(NC(=S)NCCC(c2ccccc2)c2ccccc2)cc(OC)c1 | > 100 µM (inactive)
21 | COc1cccc(NC(=S)NCCC(c2ccccc2)c2ccccc2)c1 | > 100 µM (inactive)
22 | COc1ccc(Cl)cc1Nc1nc(-c2ccc(O)c(O)c2)cs1 | 1.42 µM
23 | O=S(=O)(Nc1ncccn1)c1ccc(NC(=S)NCCC(c2ccccc2)c2ccccc2)cc1 | > 100 µM (inactive)
24 | Fc1ccccc1NC(=S)NCCC(c1ccccc1)c1ccccc1 | > 100 µM (inactive)
25 | NS(=O)(=O)c1ccc(NC(=S)NCCC(c2ccccc2)c2ccccc2)cc1 | > 100 µM (inactive)
26 | CC(C)c1ccccc1NC(=S)NCCC(c1ccccc1)c1ccccc1 | > 100 µM (inactive)
27 | CCn1c(SCC(=O)c2ccc(O)c(O)c2)nnc1-c1ccccc1OC | 1.9 µM
28 | O=C(CN1C(=O)/C(=C/c2ccco2)SC1=S)Nc1ccc(C(=O)O)cc1 | 7.97 µM
29 | Cc1ccc(C)c(NC(=S)NCCC(c2ccccc2)c2ccccc2)c1 | > 100 µM (inactive)
30 | S=C(NCCC(c1ccccc1)c1ccccc1)Nc1ccccc1 | > 100 µM (inactive)

The next lines start with the values.

Row | IC50 | Structure (SMILES)
31 | > 100 µM (inactive) | O=C(Nc1cccc(-c2cccc(Cl)c2)c1)C1CCN(Cc2ccc(CO)o2)CC1
32 | > 100 µM (inactive) | CC(C)n1cc(CN2CCC(C(=O)Nc3cccc(-c4cccc(Cl)c4)c3)CC2)cn1
33 | > 100 µM (inactive) | CCn1cc(CN2CCC(C(=O)Nc3cccc(-c4cccc(F)c4)c3)CC2)cn1
34 | 87.1 µM | Cc1ccc(NC(=O)CCNS(=O)(=O)c2ccc3[nH]c(=O)oc3c2)cc1C
35 | > 100 µM (inactive) | CCn1cc(CN2CCC(C(=O)Nc3cccc(-c4cccc(OC)c4)c3)CC2)cn1
36 | > 100 µM (inactive) | S=C(NCCC(c1ccccc1)c1ccccc1)Nc1ccc(Cl)c(Cl)c1
37 | > 100 µM (inactive) | CCn1nc(C)c(CN2CCC(C(=O)Nc3cccc(-c4cccc(F)c4)c3)CC2)c1C
38 | > 100 µM (inactive) | Cc1nn(C)c(Cl)c1CN1CCC(C(=O)Nc2cccc(-c3cccc(F)c3)c2)CC1
39 | > 100 µM (inactive) | Cc1cc(=O)oc2cc(NC(=S)NCCC(c3ccccc3)c3ccccc3)ccc12
40 | > 100 µM (inactive) | COCc1ccc(CN2CCC(C(=O)Nc3cccc(-c4cccc(Cl)c4)c3)CC2)o1
41 | > 100 µM (inactive) | CCn1cc(CN2CCC(C(=O)Nc3cccc(-c4cccc(OC)c4)c3)CC2)c(C)n1
42 | > 100 µM (inactive) | CC(C)n1cc(CN2CCC(C(=O)Nc3cccc(-c4cccc(F)c4)c3)CC2)cn1
43 | 7.51 µM | Cc1c(Cl)cccc1Nc1nc(-c2ccc(O)c(O)c2)cs1
44 | > 100 µM (inactive) | CCCn1ncc(CN2CCC(C(=O)Nc3cccc(-c4cccc(F)c4)c3)CC2)c1C
45 | > 100 µM (inactive) | CCn1ncc(CN2CCC(C(=O)Nc3cccc(-c4cccc(F)c4)c3)CC2)c1C
46 | > 100 µM (inactive) | COc1ccc(C(=O)CSc2n[nH]c(-c3ccccc3)n2)cc1OC
47 | 1.55 µM | CCc1ccccc1Nc1nc(-c2ccc(O)c(O)c2)cs1
48 | > 100 µM (inactive) | Cn1cc(CN2CCC(C(=O)Nc3cccc(-c4cccc(Cl)c4)c3)CC2)cn1
49 | > 100 µM (inactive) | Cc1c(CN2CCC(C(=O)Nc3cccc(-c4cccc(Cl)c4)c3)CC2)cnn1C

Row | IC50 | Structure (SMILES)
50 | > 100 µM (inactive) | C=CCn1cc(CN2CCC(C(=O)Nc3cccc(-c4cccc(Cl)c4)c3)CC2)c(C)n1
51 | > 100 µM (inactive) | Cc1cc(C)cc(NC(=S)NCCC(c2ccccc2)c2ccccc2)c1
52 | > 100 µM (inactive) | CCn1cc(CN2CCC(C(=O)Nc3cccc(-c4cccc(Cl)c4)c3)CC2)cn1
53 | > 100 µM (inactive) | Cn1cc(CN2CCC(C(=O)Nc3cccc(-c4cccc(F)c4)c3)CC2)cn1
54 | > 100 µM (inactive) | C=CCn1cc(CN2CCC(C(=O)Nc3cccc(-c4cccc(F)c4)c3)CC2)c(C)n1
55 | > 100 µM (inactive) | CCn1nc(C)c(CN2CCC(C(=O)Nc3cccc(-c4cccc(Cl)c4)c3)CC2)c1C
56 | > 100 µM (inactive) | O=C(Nc1cccc(-c2cccc(Cl)c2)c1)C1CCN(C2CCC2)CC1
57 | > 100 µM (inactive) | Cc1ccc(NC(=S)NCCC(c2ccccc2)c2ccccc2)cc1C
58 | > 100 µM (inactive) | Fc1ccc(NC(=S)NCCC(c2ccccc2)c2ccccc2)cc1Cl
59 | > 100 µM (inactive) | COc1cccc(-c2cccc(NC(=O)C3CCN(Cc4ccc(C)o4)CC3)c2)c1
60 | 8.17 µM | O=C(CN1C(=O)/C(=C/c2ccco2)SC1=S)Nc1cccc(C(=O)O)c1
61 | > 100 µM (inactive) | Cc1ccc(CN2CCC(C(=O)Nc3cccc(-c4cccc(F)c4)c3)CC2)o1
62 | > 100 µM (inactive) | Cc1nn(C(C)C)c(C)c1CN1CCC(C(=O)Nc2cccc(-c3cccc(F)c3)c2)CC1
63 | > 100 µM (inactive) | O=C(Nc1cccc(-c2cccc(F)c2)c1)C1CCN(Cc2ccc(CO)o2)CC1
64 | > 100 µM (inactive) | Cc1cc(Cl)ccc1NC(=S)NCCC(c1ccccc1)c1ccccc1
65 | > 100 µM (inactive) | COc1cccc(-c2cccc(NC(=O)C3CCN(Cc4ccc(CO)o4)CC3)c2)c1
66 | > 100 µM (inactive) | Cc1c(Cl)cccc1NC(=S)NCCC(c1ccccc1)c1ccccc1
67 | > 100 µM (inactive) | S=C(NCCC(c1ccccc1)c1ccccc1)Nc1cccc(Cl)c1
68 | > 100 µM (inactive) | CN(C)S(=O)(=O)c1cccc(NC(=S)NCCC(c2ccccc2)c2ccccc2)c1

Source: PubChem BioAssay AID493135 (Sanford-Burnham Center for Chemical Genomics, 2011)
